# Source: patent US9328093B2, “Selective inhibitors of ubiquitin specific protease 7, the pharmaceutical compositions thereof and their therapeutic applications” (HYBRIGENICS SA, priority 2010, dated 2016)
# Target: T1, USP7 (Homo sapiens, UniProt Q93009)
# T1 construct: Full-length wild-type human USP7 and its catalytic mutant (cysteine 223 replaced by alanine, C223A) were produced as N-terminally His-tagged fusions; His (N); made in house; host or cells: Spodoptera frugiperda Sf9 (or High Five) insect cells, baculovirus pFastBac-HT-B
# Assay: USP7 activity assay (Ub-AMC substrate)
# Format: biochemical
# Details: Ub-AMC 300 nM, USP7 100 pM, 30 min pre-incubation
# Source text: The cDNA encoding USP7 was obtained by PCR amplification from placenta mRNA. USP7 cDNA was subcloned by PCR into a baculovirus expression vector (pFastBac-HT; Invitrogen). Full-length wild-type human USP7 and its catalytic mutant (cysteine 223 replaced by alanine, C223A) were produced as N-terminally His-tagged fusions in Spodoptera frugiperda cells (Sf9, Invitrogen), using the Bac-to-Bac Baculovirus system from Invitrogen according to the manufacturer's instructions. pFastBac-HT-B-USP7 was used to transform DH10bac cells (Invitrogen), and blue/white selection was carried out on X-gal/IPTG agar plates. Bacmid DNA was prepared by an alkaline lysis procedure. The integrity of the bacmid minipreps and their orientation were checked by PCR, using generic and specific primers. Sf9 insect cells were cultured in InsectXpress medium (Cambrex) at 27° C. and transfected with the corresponding bacmid, using GeneShuttle 40 (Q-BIOgen). Viruses were recovered in the supernatant 72 h after transfection. Viruses were amplified by infecting insect cells (Sf9 or High Five cells; invitrogen) in 50 ml InsectXpress medium in a 150 cm^2 cell culture flask with 500 μl of the supernatant from transfected Sf9 cells. Following the second round of amplification, infected cells were recovered by rapid SDS lysis, boiled for 5 min at 100° C., sonicated briefly and centrifuged for 20 min at 14,000 g. Expression levels in infected Sf9 cells were compared with those in uninfected cells. Fusion proteins were then allowed to bind to TALON beads (BD Biosciences, TALON metal affinity resin) for 30 min at 4° C. with gentle rocking. Beads were extensively washed (50 mM sodium phosphate buffer pH 7.0, 500 mM NaCl, 10 mM Imidazole, 0.5% Triton X-100 and 10% glycerol) and bound proteins were eluted in wash buffer supplemented with 250 mM Imidazole (Sigma). Eluted fractions were resolved on 4-12% NuPAGE gels (Novex, Invitrogen). Fractions containing high concentrations of purified proteins (purity >95%) were dialyzed (20 mM Tris HCl pH 7.6, 200 mM NaCl, 1 mM DTT, 1 mM EDTA and 10% glycerol) were aliquoted and snap frozen in liquid nitrogen before storage at −80° C.
# USP7 was diluted in USP buffer (50 mM Tris HCl; 0.5 mM EDTA; 5 mM DTT; 0.01% Triton X-100; Bovine Serum Albumin 0.05 mg·ml^−1 pH7.6). Compounds stocks (10 mM) were stored at −20° C. in DMSO. Compounds were tested at different concentrations: from 200 μM to 91 nM.
# Reactions were performed as duplicates in Black 384 well plates (small volumes microplates; Greiner; 10 μl final reaction volume). The substrate concentration for USP7 was 300 nM Ub-AMC (Chem. Biol., 2003, 10, p. 837-846) (Boston Biochem). The concentrations of the enzyme (USP7) in specificity assays was 100 pM. The concentrations were determined in order to perform specificity assays under initial velocities at fixed substrate concentration. Compounds were pre-incubated with enzymes for 30 minutes at 25° C. Reactions were initiated by addition of substrate to the plates containing the enzymes (+/− compounds) diluted in assay buffer. Reactions were incubated for 60 minutes at 37° C. Reactions were stopped by adding acetic acid (100 mM final). Readings were performed on a Pherastar Fluorescent Reader (BMG). λ
# Emission 380 nm; λ Excitation=460 nm. Data (mean values +/− standard deviation) were analyzed as % of control (no compound) and plotted as percentage versus the Log of the compound concentration using GraphPad (Prism). Data were fitted to a sigmoidal model (variable slope).
row,SMILES,IC50 [µM]
1,"CN1CCCC1CCNC(=O)c1ccc2c(Cl)c3c(nc2c1)CCCC3 (stereo not drawn) [Example 17, 9-chloro-N-(2-(1-methylpyrrolidin-2-yl)ethyl)-5,6,7,8-tetrahydroacridino-3-carboxamide]",13.7
2,"O=C(NCc1cccc(CN2CCCC2)c1)c1ccc2c(Cl)c3c(nc2c1)CCCC3 [Example 18, 9-chloro-N-(3-(pyrrolidin-1-ylmethyl)benzyl)-5,6,7,8-tetrahydroacridine-3-carboxamide]",18.3
3,"O=C(Nc1cccc(CN2CCCC2)c1)c1ccc2c(Cl)c3c(nc2c1)CCCC3 [Example 19, 9-chloro-N-(3-(pyrrolidin-1-ylmethyl)phenyl)-5.6,7,8-tetrahydroacridine-3-carboxamide]",8.2
4,"CC1CCCCN1CCCNC(=O)c1ccc2c(Cl)c3c(nc2c1)CCCC3 (stereo not drawn) [Example 20, 9-chloro-N-(3-(2-methylpiperidin-1-yl)propyl)-516,7,8-tetrahydroacridine-3-carboxamide]",45.5
5,"O=C(NCc1ccc(CN2CCCC2)cc1)c1ccc2c(Cl)c3c(nc2c1)CCCC3 [Example 21, 9-chloro-N-(4-(pyrrolidin-1-ylmethyl)benzyl)-5,6,7,8-tetrahydroacridine-3-carboxamide]",16.3
6,"COc1ccc(CN2CCC(CNC(=O)c3ccc4c(Cl)c5c(nc4c3)CCCC5)CC2)cc1 [Example 22, 9-chloro-N-((1-(4-methoxybenzyl)piperidin-4-yl)methyl)-5,6,7,8-tetrahydroacridine-3-carboxamide]",27.4
7,CN(C)c1ccc(CN2CCC(CNC(=O)c3ccc4c(Cl)c5c(nc4c3)CCCC5)CC2)cc1 [Example 23],33.1
8,"O=C(NCC1CCNCC1)c1ccc2c(Cl)c3c(nc2c1)CCCC3 [Example 24, 9-chloro-N-((piperidin-4-yl)methyl)-5,6,7,8-tetrahydroacridine-3-carboxamide]",45.2
9,"O=C(NCC(CN1CCCC1)C(O)c1ccccc1)c1ccc2c(Cl)c3c(nc2c1)CCCC3 (stereo not drawn) [Example 25, 9-chloro-N-(3-hydroxy-3-phenyl-2-pyrrolidin-1-ylmethylpropyl)-5,6,7,8-tetrahydroacridine-3-carboxamide]",59.5
